Values of other authors as cited in US20250031692A1, “HIGH LOAD SUSPENSION CONCENTRATE COMPOSITIONS” (ADAMA AGAN LTD., priority 2021, published 2025).

How the values were obtained:
[1] = system: grass and broadleaf weeds; conditions: at lower application rates compared with other commercial herbicides
[2] = biological target: T1, recombinant Fatty Acid Elongation 1 (FAE1) of Arabidopsis (Arabidopsis thaliana, UniProt Q38860)
T1 sequence (Q38860 1-506): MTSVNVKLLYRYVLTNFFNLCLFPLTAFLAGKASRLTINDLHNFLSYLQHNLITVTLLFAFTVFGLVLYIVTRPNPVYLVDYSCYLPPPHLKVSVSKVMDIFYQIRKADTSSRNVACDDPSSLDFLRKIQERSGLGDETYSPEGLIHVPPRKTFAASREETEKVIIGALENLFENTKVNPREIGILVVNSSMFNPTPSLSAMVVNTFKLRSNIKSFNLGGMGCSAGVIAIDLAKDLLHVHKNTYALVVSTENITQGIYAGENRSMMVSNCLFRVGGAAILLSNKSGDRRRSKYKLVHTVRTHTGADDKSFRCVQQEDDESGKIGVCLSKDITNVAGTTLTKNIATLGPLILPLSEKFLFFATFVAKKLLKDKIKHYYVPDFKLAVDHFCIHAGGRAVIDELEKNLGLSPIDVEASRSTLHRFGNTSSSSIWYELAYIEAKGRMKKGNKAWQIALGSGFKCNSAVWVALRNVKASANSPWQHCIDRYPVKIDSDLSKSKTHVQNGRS

[3] = system: Echinochloa spp. and other annual weeds; conditions: 150-200 g a.i./ha; long residual activity
[4] = system: VLCFAE activity of the microsomal fraction of etiolated barnyard millet seedlings

Structure (SMILES) | herbicidal activity [1] | inhibition of VLCFAE activity [2] | herbicidal activity [3] | inhibition of VLCFAE activity [4]
Cn1nc(C(F)(F)F)c(CS(=O)(=O)C2=NOC(C)(C)C2)c1OC(F)F [Pyroxasulfone] | excellent herbicidal activity |  |  | 
CCOc1cc(Cl)c(CS(=O)(=O)C2=NOC(C)(C)C2)cc1Cl [Fenoxasulfone, 3-[(2,5-dichloro-4-ethoxyphenyl)methylsulfonyl]-5,5-dimethyl-4H-1,2-oxazole] |  | inhibited by fenoxasulfone in a time-dependent manner | excellent herbicidal activity | inhibited by fenoxasulfone in a time-independent manner
